Consider eleven compounds from US12209087B2, “AKT1 modulators” (Alterome Therapeutics, Inc., priority 2022, dated 2025).

SMILES strings stand for the structures.

T1 sequence (P31749 whole entry E17K): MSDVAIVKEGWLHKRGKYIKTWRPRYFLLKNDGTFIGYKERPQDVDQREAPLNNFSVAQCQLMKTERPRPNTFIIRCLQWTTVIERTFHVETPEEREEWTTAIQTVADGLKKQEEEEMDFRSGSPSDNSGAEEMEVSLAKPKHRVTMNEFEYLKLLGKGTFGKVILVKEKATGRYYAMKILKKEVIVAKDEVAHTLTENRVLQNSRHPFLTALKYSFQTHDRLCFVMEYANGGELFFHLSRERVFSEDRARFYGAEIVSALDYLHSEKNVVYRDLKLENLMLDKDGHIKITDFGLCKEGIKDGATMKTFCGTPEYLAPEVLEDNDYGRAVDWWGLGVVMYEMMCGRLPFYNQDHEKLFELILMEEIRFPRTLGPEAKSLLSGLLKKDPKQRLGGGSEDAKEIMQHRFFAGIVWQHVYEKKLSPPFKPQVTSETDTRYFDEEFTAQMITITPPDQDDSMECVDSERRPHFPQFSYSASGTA

The first assay addresses T1, full length AKT E17K (Homo sapiens, UniProt P31749, E17K).
T1 construct: host or cells: HEK-293 (ATCC CRL-1573)
As to the kind of experiment: NanoBRET Target Engagement (TE) Assay. It is filed as cell-based. The conditions noted are these: competitive displacement of tracer in cells, read-out: AKT1 E17K IC50. Put shortly: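 Compound and tracer incubated 2 h before luminescence at donor 450 nm and acceptor 600 nm, with extracellular signal inhibited. EC50 by sigmoidal variable-slope regression.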
`Cc1nn(C)nc1-c1ccc2nc(-c3nccnc3N)n(-c3ccc(CN4CCC(Nc5ccnc(C#N)n5)CC4)cc3)c2n1` [Example 635, 4-((1-(4-(2-(3-Aminopyrazin-2-yl)-5-(2,5-dimethyl-2H-1,2,3-triazol-4-yl)-3H-imidazo[4,5-b]pyridin-3-yl)benzyl)piperidin-4-yl)amino)pyrimidine-2-carbonitrile]: the IC50 (commonly the concentration that inhibits the measured activity by half) was 15 to 60 nM.

For the compound `N#Cc1nccc(NC2CCN(Cc3ccc(-n4c(-c5cccnc5N)nc5ccc(-c6ccc(C7CC7)nc6)nc54)cc3)CC2)n1` [Example 587, 4-((1-(4-(2-(2-Aminopyridin-3-yl)-5-(6-cyclopropylpyridin-3-yl)-3H-imidazo[4,5-b]pyridin-3-yl)benzyl)piperidin-4-yl)amino)pyrimidine-2-carbonitrile], the IC50 is less than 15 nM.

For `Cc1ccccc1-c1ccc2nc(-c3cccnc3N)n(-c3ccc(CN4CCC(Nc5ccnc(C#N)n5)CC4)cc3)c2n1` [Example 527, 4-((1-(4-(2-(2-Aminopyridin-3-yl)-5-(o-tolyl)-3H-imidazo[4,5-b]pyridin-3-yl)benzyl)piperidin-4-yl)amino)pyrimidine-2-carbonitrile], the IC50 was less than 15 nM.

Take `N#Cc1nccc(NC2CCN(Cc3ccc(-n4c(-c5cccnc5N)nc5ccc(-c6ccc(OC(F)F)cn6)nc54)cc3)CC2)n1` [Example 579, 4-((1-(4-(2-(2-Aminopyridin-3-yl)-5-(5-(difluoromethoxy)pyridin-2-yl)-3H-imidazo[4,5-b]pyridin-3-yl)benzyl)piperidin-4-yl)amino)pyrimidine-2-carbonitrile]: the IC50 is less than 15 nM.

As to `CC(C)Oc1ccc2nc(-c3cccnc3N)n(-c3ccc(CN4CCC(Nc5ccnc(C#N)n5)CC4)cc3)c2n1` [Example 425, 4-((1-(4-(2-(2-Aminopyridin-3-yl)-5-isopropoxy-3H-imidazo[4,5-b]pyridin-3-yl)benzyl)piperidin-4-yl)amino)pyrimidine-2-carbonitrile], the IC50 was less than 15 nM.

Regarding `N#Cc1nccc(NC2CCN(Cc3ccc(-n4c(-c5cccnc5N)nc5ccc(-c6cnn(C7CC7)c6)nc54)cc3)CC2)n1` [Example 555, 4-((1-(4-(2-(2-Aminopyridin-3-yl)-5-(1-cyclopropyl-1H-pyrazol-4-yl)-3H-imidazo[4,5-b]pyridin-3-yl)benzyl)piperidin-4-yl)amino)pyrimidine-2-carbonitrile], the IC50 was less than 15 nM.

The same assay, now with this note: competitive tracer displacement in living cells, read-out: AKT1 E17K IC50.
As to `N#Cc1ccc(C(=O)NCc2ccc(-n3c(-c4cccnc4N)nc4cccnc43)cc2)nc1` [Example 124, N-(4-(2-(2-Aminopyridin-3-yl)-3H-imidazo[4,5-b]pyridin-3-yl)benzyl)-5-cyanopicolinamide], the IC50 was 600 to 10000 nM.

Turning to `N#Cc1cc(C(=O)N2CCN(Cc3ccc(-n4c(-c5cccnc5N)nc5ccc(-c6ccccc6)nc54)cc3)CC2)ccn1` [Example 172, 4-(4-(4-(2-(2-Aminopyridin-3-yl)-5-phenyl-3H-imidazo[4,5-b]pyridin-3-yl)benzyl)piperazine-1-carbonyl)picolinonitrile], the IC50 lay in the range of 15 to 60 nM.

Consider `C[C@@H]1CN(Cc2ccc(-n3c(-c4cccnc4N)nc4ccc(-c5ccccc5)nc43)cc2)C[C@H](C)N1c1ncnc(C#N)n1` [Example 277, 4-((2R,6S)-4-(4-(2-(2-aminopyridin-3-yl)-5-phenyl-3H-imidazo[4,5-b]pyridin-3-yl)benzyl)-2,6-dimethylpiperazin-1-yl)-1,3,5-triazine-2-carbonitrile], for which the IC50 lay in the range of 15 to 60 nM.

`N#Cc1cc(NC2CCN(Cc3ccc(-n4c(-c5cccnc5N)nc5ccc(-c6cccc(F)c6)nc54)cc3)CC2)ncn1` [Example 311, 6-((1-(4-(2-(2-Aminopyridin-3-yl)-5-(3-fluorophenyl)-3H-imidazo[4,5-b]pyridin-3-yl)benzyl)piperidin-4-yl)amino)pyrimidine-4-carbonitrile]: the IC50 is less than 15 nM.

`N#Cc1ncnc(N2CCCN(Cc3ccc(-n4c(-c5cccnc5N)nc5ccc(-c6ccccc6)nc54)cc3)CC2)n1` [Example 250, 4-(4-(4-(2-(2-Aminopyridin-3-yl)-5-phenyl-3H-imidazo[4,5-b]pyridin-3-yl)benzyl)-1,4-diazepan-1-yl)-1,3,5-triazine-2-carbonitrile]: the IC50 was in the range of 15 to 60 nM.
